Key:
Assay type in all cases: cell-based, human
AR mRNA [1] = test: AR mRNA in C4-2B cells by free uptake (hAR_LTS00943); conditions: free uptake, 24 hrs
Description: (§1) Cells were plated at a concentration of 1,000 cells/well in 96-well plates to measure cell proliferation, and at 4,000 cells/well to measure target reduction. ISIS 549458, ISIS 549372, ISIS 549434, and ISIS 554221 were added individually at 0.04 μM, 0.20 μM, 1.00 μM, or 5.00 μM. After an incubation period of 24 hrs, mRNA levels were measured using hAR_LTS00943.

AR full-length mRNA = AR full-length mRNA in CWR22-RV1 cells (RNAiMax, RTS3559); conditions: 6 days
Description: (§2) CWR22-RV1 cells were plated and transfected using RNAiMax reagent (Life Technologies) with ISIS oligonucleotides at 1.7 nM, 5.0 nM, 16.7 nM, or 50 nM concentrations. ISIS 347526 was included as a negative control. After a treatment period of 6 days, the target reduction and proliferative capacity of the cancer cells was measured.
(§3) Antisense inhibition of AR full-length mRNA was measured with the RTS3559 primer probe set. The results are presented in Table 63 as percent inhibition relative to non-treated cells. The reduction in V7 splice variant of the AR mRNA was also measured by RT-PCR using SYBR Green staining (Hu, R. et al., Cancer Res. 2009. 69: 16-22). The results are presented in Table 64, as percent reduction, relative to non-treated cells. Cell proliferation was measured with CellTiter 96® AQueous One Solution Cell Proliferation kit (Promega), following the manufacturer's instructions. Results are presented in Table 65 as percent inhibition of proliferation, relative to non-treated cells.

C4-2B cells [2] = test: C4-2B cell proliferation, ASO in combination with MDV3100 (Example 19); conditions: 6 days
Description: C4-2B cells were plated at 1,500 cells per well. […] ISIS 347526 was included as a negative control. […] After a treatment period of 6 days, the proliferative capacity of the cancer cells was measured with CellTiter 96® AQueous One Solution Cell Proliferation kit (Promega), following the manufacturer's instructions. Results are presented in Table 46 as percent inhibition of proliferation, relative to non-treated cells. Treatment of the cells with ISIS 549372 or ISIS 549458 reduced proliferation of the cells more extensively than treatment with ISIS 554221.

AR mRNA [3] = test: AR mRNA levels in LMR20 cells (with/without DHT or R1881); conditions: with or without DHT/R1881
Description: LMR20 cells were plated at 1,500 cells per well in phenol red-free medium with CSS.

LMR20 cells = test: Proliferation of MDV3100-resistant LMR20 cells (MTT; with R1881 or DHT); conditions: 5 days
Description: LMR20 cells were plated at 1,500 cells per well in phenol red-free medium with charcoal-stripped fetal bovine serum (CSS), to remove any androgens from the medium (Life Technologies). […] The synthetic androgen agonist, R1881, (Takeda, A. N. et al., Mol. Pharmacol. 2007. 71: 473-82) was added on day 1 at 1 nM dose to a set of cells also treated with each of the antisense oligonucleotides. DHT was added on day 1 at a dose of 10 nM to another set of cells also treated with each of the antisense oligonucleotides. […] After a treatment period of 5 days, the proliferative ability of the cancer cells was measured by the standard MTT assay. Results are presented in Table 42 as percent inhibition of proliferation, relative to non-treated cells.

C4-2B cells [4] = test: C4-2B cell proliferation by free uptake (MTT); conditions: day 6
Description: as §1
On day 6, cells plated for measuring proliferation were incubated with MTT reagent until the development of color. Color intensity was measured using a spectrophotometer at 490 nm.

CWR22-RV1 cells = test: CWR22-RV1 cell proliferation (CellTiter 96); conditions: RNAiMax, 6 days
Description: as §2, §3

full-length AR = test: Western blot of full-length AR in MDV3100-resistant C4-2B cells; conditions: C4-2B MR cells (Example 16)
Description: (§4) ISIS 549372, ISIS 549434, and ISIS 554221 at 1 μM concentration of antisense oligonucleotide were each added to the culture media at 1 μM concentration for free uptake by the cells. After a treatment period of 2 days, cells were harvested in RIPA buffer containing protease inhibitors. The presence of bands for full-length AR, as well as the variant form, AR-V7, was detected by western blot using AR antibody (N-20, Santa Cruz).
(§5) Western analysis of full-length AR, as well as the AR-V7 variant, was also conducted in a manner similar to the assay described above.

AR-V7 = test: Western blot of AR-V7 in MDV3100-resistant C4-2B cells; conditions: C4-2B MR cells (Example 16)
Description: as §4, §5

[5] = system: V7 splice variant of the AR mRNA; test: AR V7 splice variant mRNA in CWR22-RV1 cells (RT-PCR SYBR Green); conditions: RNAiMax, 6 days
Description: as §2, §3

Sequence: ACCAAGTTTCTTCAGC (LNA gapmer, phosphorothioate backbone, further chemistry not given here) [ISIS 554221, 3-10-3 LNA gapmer, phosphorothioate backbone, targeted to exon 4 of AR; benchmark, reference compound]
- Percent inhibition of AR full-length mRNA (AR mRNA [1]; dose 0.04 μM): 0%
- Percent inhibition of AR full-length mRNA (AR mRNA [1]; dose 0.20 μM): 0%
- Percent inhibition of AR full-length mRNA (AR mRNA [1]; dose 1.00 μM): 0%
- Percent inhibition of AR full-length mRNA (AR mRNA [1]; dose 5.00 μM): 0%
- Percent inhibition of AR full-length mRNA (AR full-length mRNA; dose 5.0 nM): 41%
- Percent inhibition of AR full-length mRNA (AR full-length mRNA; dose 16.7 nM): 67%
- Percent inhibition of AR full-length mRNA (AR full-length mRNA; dose 50.0 nM): 72%
- Percent inhibition of C4-2B cell proliferation with 0.1 μM ASO (C4-2B cells [2]; 0.1 μM ASO + MDV3100 1 μM): 59%
- Percent inhibition of C4-2B cell proliferation with 0.1 μM ASO (C4-2B cells [2]; 0.1 μM ASO + MDV3100 […]): 29%
- Percent inhibition of C4-2B cell proliferation with 0.1 μM ASO (C4-2B cells [2]; 0.1 μM ASO, MDV3100 0 μM): 9%
- Percent inhibition of C4-2B cell proliferation with 0.2 μM ASO (C4-2B cells [2]; 0.2 μM ASO + MDV3100 1 μM): 67%
- Percent inhibition of C4-2B cell proliferation with 0.2 μM ASO (C4-2B cells [2]; 0.2 μM ASO + MDV3100 […]): 45%
- Percent inhibition of C4-2B cell proliferation with 0.2 μM ASO (C4-2B cells [2]; 0.2 μM ASO, MDV3100 0 μM): 23%
- reduced cell proliferation, ASO alone (C4-2B cells [2]; C4-2B cells, ASO alone, Table 46 (0.1 μM ASO)): 23%
- AR mRNA levels in LMR20 cells (AR mRNA [3]): did not alter AR mRNA levels
- Percent inhibition of LMR20 cell proliferation (LMR20 cells; CSS + DHT, ASO 0.04 μM): 0%
- Percent inhibition of LMR20 cell proliferation (LMR20 cells; CSS + DHT, ASO 0.20 μM): 0%
- Percent inhibition of LMR20 cell proliferation (LMR20 cells; CSS + DHT, ASO 1.0 μM): 10%
- Percent inhibition of LMR20 cell proliferation (LMR20 cells; CSS + DHT, ASO 5.0 μM): 36%
- Percent inhibition of LMR20 cell proliferation (LMR20 cells; CSS + R1881, ASO 0.04 μM): 1%
- Percent inhibition of LMR20 cell proliferation (LMR20 cells; CSS + R1881, ASO 0.20 μM): 10%
- Percent inhibition of LMR20 cell proliferation (LMR20 cells; CSS + R1881, ASO 1.0 μM): 19%
- Percent inhibition of LMR20 cell proliferation (LMR20 cells; CSS + R1881, ASO 5.0 μM): 54%
- Percent inhibition of LMR20 cell proliferation (LMR20 cells; CSS, ASO 0.04 μM): 0%
- Percent inhibition of LMR20 cell proliferation (LMR20 cells; CSS, ASO 0.20 μM): 1%
- Percent inhibition of LMR20 cell proliferation (LMR20 cells; CSS, ASO 1.0 μM): 2%
- Percent inhibition of LMR20 cell proliferation (LMR20 cells; CSS, ASO 5.0 μM): 16%
- Percent inhibition of cell proliferation (C4-2B cells [4]; dose 0.04 μM): 0%
- Percent inhibition of cell proliferation (C4-2B cells [4]; dose 0.20 μM): 10%
- Percent inhibition of cell proliferation (C4-2B cells [4]; dose 1.00 μM): 21%
- Percent inhibition of cell proliferation (C4-2B cells [4]; dose 5.00 μM): 30%
- Percent inhibition of cell proliferation (CWR22-RV1 cells; dose 5.0 nM): 11%
- Percent inhibition of cell proliferation (CWR22-RV1 cells; dose 16.7 nM): 27%
- Percent inhibition of cell proliferation (CWR22-RV1 cells; dose 50.0 nM): 47%
- levels of full-length AR (Western analysis) (full-length AR): reduced levels of full-length AR less extensively compared to ISIS 549372
- levels of AR-V7 (Western analysis) (AR-V7): did not reduce levels of AR-V7
- Percent inhibition of AR splice variant, V7 ([5]; dose 5.0 nM): 1%
- Percent inhibition of AR splice variant, V7 ([5]; dose 16.7 nM): 7%
- Percent inhibition of AR splice variant, V7 ([5]; dose 50.0 nM): 35%
